The source of these data is PMC8296573, “Synthesis and Biological Evaluation of Fingolimod Derivatives as Antibacterial Agents” (ACS Omega, 2021).

Each structure is given as a SMILES string. ≈ marks a conversion by molar mass, not a printed value. Like-named read-outs stand apart in the source and are kept apart here. Where only a bound is given, the exact number is not on record here.

Type in all cases: cell-based, Staphylococcus aureus
The subject of one experiment is S. aureus ATCC 25923. In words: Antibacterial activity, pre-exposure (planktonic cells and biofilm formation). To be noted: for MIC: Staphylococcus aureus, ATCC25923, read-out: MIC (S. aureus); for Initial screening result (active = at least 60% inhibition of planktonic cells and biofilm formation): 50 μM, S. aureus. The protocol:
(§1) The antimicrobial activity was assessed in a similar way for the initial screening and the dose–response evaluation against different bacterial strains. With the exception of the post-exposure experiment, the compounds were added to the wells along with the bacteria to test the ability of compounds to prevent bacterial growth and biofilm formation (pre-exposure). The compounds were diluted in DMSO and plated directly in 96-well plates before adding the bacterial culture, and plates were incubated for 18 h under aerobic conditions at 37 °C with shaking (220 rpm). The antibacterial activity of the compounds was assessed on planktonic cells and biofilms separately using two different measurements for each: optical density (turbidity) and resazurin reduction (viability) on planktonic cells and resazurin followed by a crystal violet staining assay (total biomass) on biofilms, as described in the following sections.
(§2) The resazurin staining was performed according to the protocol previously optimized with a few modifications.[46] Briefly, the planktonic solution was first transferred into a new 96-well plate and the OD of the planktonic solution was measured using a Varioskan LUX Multimode microplate reader (Thermo Scientific, Vantaa, Finland). Then, 10 μL of a 400 μM resazurin (R7017, Sigma-Aldrich, St. Louis, MO) diluted in phosphate-buffered saline (PBS) (Thermo Fisher Scientific, MA) was added to the wells (for a final resazurin concentration of 20 μM). The plate was incubated in the dark with shaking (220 rpm) for about 3–10 min at room temperature with S. aureus and A. baumannii (until the bacteria controls turned pink) or for 20 min at 37 °C with P. aeruginosa. Fluorescence was measured at λex = 560 nm and λem = 590 nm using the top optics of the Varioskan LUX Multimode microplate reader. The planktonic plate was then discarded. The original challenge plate containing the biofilms was washed once with PBS, and 200 μL of a 20 μM resazurin solution was added to the wells. The plate was incubated in the dark at 37 °C with shaking (220 rpm) for 30 min with S. aureus, 60 min with A. baumannii, and 90 min with P. aeruginosa. Fluorescence was measured as described for the planktonic solution. The biofilms were next treated with crystal violet staining.
(§3) After removing the resazurin solution from the plate, biofilms were fixed with ethanol 100% for 15 min at room temperature. Ethanol was then removed, and the biofilms were left to air-dry completely at RT. Crystal violet, diluted to 1:100 in deionized water from the 2.3% commercial solution (HT90132, Sigma-Aldrich, St. Louis, MO), was added to the wells and, after a 5 min incubation with the dye, the biofilms were washed twice with deionized water and left to air-dry for about 10 min. The dye was solubilized in ethanol 100% for 1 h, and absorbance was measured at 595 nm using a Multiskan Sky microplate spectrophotometer (Thermo Scientific, Vantaa, Finland).

A further experiment deals with S. aureus P2. Nature of the experiment: Antibacterial activity, pre-exposure. Conditions: S. aureus P2, pre-exposure, 50 µM, ± SD; for inhibition at 50 µM: Staphylococcus aureus. The protocol:
as §1, §2, §3

A further experiment relates to S. aureus ATCC 12598. Nature of the experiment: Antibacterial activity, pre-exposure. To be noted: S. aureus ATCC 12598, pre-exposure, 50 µM, ± SD; for inhibition at 50 µM: Staphylococcus aureus, ATCC12598. How it is done: as §1, §2, §3
The mark [1] stands for this setting: read-out: Average inhibition %, biofilms biomass.
[2] abbreviates: read-out: Average inhibition %, planktonic cells turbidity.

Regarding `NC(CO)(CO)CCc1ccc(/C=C/Cc2ccccc2)cc1` [Compound 16, (E)-2-Amino-2-[4-(3-phenylprop-1-en-1-yl)phenethyl]propane-1,3-diol], the MIC in the experiment on S. aureus ATCC 25923 is > 100 µM. As to `CC1(C)S[C@@H]2[C@H](NC(=O)Cc3ccccc3)C(=O)N2[C@H]1C(=O)O` [Penicillin-G, reference compound], the “Average inhibition %, biofilms viability” value in the experiment with S. aureus P2 is on record as 9.5 ± 9.8%; in the experiment on S. aureus ATCC 12598, 97.5 ± 1.5%. Further, the “Average inhibition %, planktonic cells viability” value is given as 14.9 ± 10.3% in the experiment on S. aureus P2 and 99.7 ± 0% in the experiment on S. aureus ATCC 12598. For the same compound, the inhibition at 50 µM was determined as 17.4 ± 13.2% in the experiment on S. aureus P2 (setting [1]), 12.2 ± 14.5% in the experiment with S. aureus P2 (setting [2]), 95.8 ± 1% in the experiment on S. aureus ATCC 12598 (setting [1]) and 99.7% in the experiment on S. aureus ATCC 12598 (setting [2]). As to `CCCCc1ccc(COc2ccc(CCC(N)(CO)CO)cc2)cc1` [Compound 29, 2-Amino-2-[4-[(4-butylbenzyl)oxy]phenethyl]propane-1,3-diol], the MIC in the experiment on S. aureus ATCC 25923 is > 100 µM.

With `CCCCCCCCc1ccc(CCC(N)(CO)CO)nc1` [Compound 61, 2-Amino-2-[2-(5-octylpyridin-2-yl)ethyl]propane-1,3-diol], in the experiment on S. aureus ATCC 25923, the “Initial screening result (active = at least 60% inhibition of planktonic cells and biofilm formation)” value is reported as “did not show an inhibitory activity comparable to fingolimod”; the MIC worked out at 100 µM (≈ 30.8 µg/mL). `CCCCCCc1ccc(CCC(N)(CO)CO)cc1` [Compound 10, 2-Amino-2-(4-hexylphenethyl)propane-1,3-diol]: in the experiment with S. aureus ATCC 25923, the “Initial screening result (active = at least 60% inhibition of planktonic cells and biofilm formation)” value is “only limited activity against S. aureus biofilms”; the MIC came out at 100 µM (≈ 27.9 µg/mL). For the compound `NC(CO)(CO)CCc1ccc(Cc2ccccc2)cc1` [Compound 12, 2-Amino-2-(4-benzylphenethyl)propane-1,3-diol], the MIC with S. aureus ATCC 25923 was > 100 µM. For the compound `NC(CO)(CO)CCc1ccc(OCc2ccc(C(F)(F)F)nc2)cc1` [Compound 27], in the experiment on S. aureus ATCC 25923, the MIC was > 100 µM.

On to `COc1ccc(-c2ccc(CCC(N)(CO)CO)cc2)cc1OC` [Compound 13, 2-Amino-2-[2-(3′,4′-dimethoxy-[1,1′-biphenyl]-4-yl)ethyl]propane-1,3-diol], for which, in the experiment on S. aureus ATCC 25923, the MIC is > 100 µM. With `NC(CO)(CO)CCc1ccc(OCc2ccc3ccc(Cl)cc3n2)cc1` [Compound 28, 2-Amino-2-[4-[(7-chloroquinolin-2-yl)methoxy]phenethyl]propane-1,3-diol], the MIC in the experiment on S. aureus ATCC 25923 was > 100 µM. The same measure, in the same setting: the result for `NC(CO)(CO)CCc1ccc(-c2ccc(OCc3ccccc3)cc2)cc1` [Compound 14, 2-Amino-2-[2-[4′-(benzyloxy)-[1,1′-biphenyl]-4-yl]ethyl]propane-1,3-diol] reads > 100 µM. The same measure, in the same setting: in the case of `NC(CO)(CO)CCc1ccc2ccccc2n1` [Compound 33, 2-Amino-2-[2-(quinolin-2-yl)ethyl]propane-1,3-diol] it was > 100 µM. Consider `NC(CO)(CO)CCc1ccc(OCc2ccc(C(F)(F)F)cc2)cc1` [Compound 26, 2-Amino-2-[4-[[4-(trifluoromethyl)benzyl]oxy]phenethyl]propane-1,3-diol], for which the MIC with S. aureus ATCC 25923 was > 100 µM.

As to `NC(CO)(CO)CCc1ccc(OCc2ccccc2)cc1` [Compound 25, 2-Amino-2-[4-(benzyloxy)phenethyl]propane-1,3-diol], the MIC in the experiment with S. aureus ATCC 25923 was > 100 µM.

As usually defined, the inhibition is the relative decrease from the control value, in per cent.
